Assay results as given in publication PMC6774072, “Azologization and repurposing of a hetero-stilbene-based kinase inhibitor: towards the design of photoswitchable sirtuin inhibitors” (Beilstein Journal of Organic Chemistry, 2019).
Where two headings read alike, the source gives them in different places.

What was measured:
Sirt1 = target: T1, Sirt1 (Homo sapiens, UniProt Q96EB6); test: fluorescence-based deacetylase assay with Z-Lys(acetyl)-AMC (ZMAL) substrate; format: biochemical; conditions: @ 100 µM
T1 construct: Expression and purification of Sirt1_133-747; made in house
T1 sequence (Q96EB6 133-747): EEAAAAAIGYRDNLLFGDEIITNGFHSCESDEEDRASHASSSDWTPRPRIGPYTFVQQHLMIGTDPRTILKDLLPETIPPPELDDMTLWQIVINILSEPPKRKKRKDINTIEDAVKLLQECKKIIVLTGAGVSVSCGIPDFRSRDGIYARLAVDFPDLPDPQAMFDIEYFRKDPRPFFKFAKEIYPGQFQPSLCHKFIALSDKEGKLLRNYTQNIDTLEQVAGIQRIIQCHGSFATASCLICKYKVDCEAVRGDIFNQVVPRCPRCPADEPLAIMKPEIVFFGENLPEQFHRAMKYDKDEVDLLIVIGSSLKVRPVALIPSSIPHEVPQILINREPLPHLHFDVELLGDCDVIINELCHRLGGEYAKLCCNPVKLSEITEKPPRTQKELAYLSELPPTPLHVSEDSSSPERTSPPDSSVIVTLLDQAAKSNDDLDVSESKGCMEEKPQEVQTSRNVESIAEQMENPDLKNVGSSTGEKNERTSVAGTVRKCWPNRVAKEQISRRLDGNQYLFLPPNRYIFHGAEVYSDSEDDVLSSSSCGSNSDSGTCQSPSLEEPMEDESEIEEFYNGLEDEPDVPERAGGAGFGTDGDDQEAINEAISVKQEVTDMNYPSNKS
Method: (§1) The influence on deacetylase activity of three human sirtuin isoforms (Sirt1–3) was determined in a fluorescence-based assay, using Z-Lys(acetyl)-AMC (ZMAL) as a substrate. Compared to the lead structure 2a, all compounds except 2e–h show increased inhibitory activity against Sirt2 (Table 1). […] Moreover, a slight increase in selectivity for Sirt2 and Sirt3 over Sirt1 could be observed for 2c, 4a and 4b. […] Though not photoswitchable, compounds 4a and 4b were synthesized to test the influence of a rigid conformation around the C=C double bond on sirtuin inhibition. […] A recently developed fluorescence polarization (FP)-based assay enables mapping of ligand binding to this specific binding site. For 2a an interaction with the selectivity pocket was already implied in the same work. Additionally performed docking studies proposed a binding mode in which 2a mimics the nicotinamide residue of NAD^+, whereas aromatic amino acid residues of the selectivity pocket stabilize the dimethylphenol ring. As photoisomerization in stilbenes and azo dyes is accompanied by a perpendicular twist of the phenyl ring towards the former molecular plane, we assumed that this conformational change should provoke a differential binding situation at least for the dimethylphenol residue in 2a. Unfortunately, binding of 2b and c could not be localised in the vicinity of the selectivity pocket of Sirt2, so that the binding pose remains unclear.
(§2) The photoswitchable diazeno compound 11 was subjected to biological evaluation to test the effect of photoisomerization on the inhibitory activity. The enzyme assay mixture containing 11 was exposed to 5 minutes of 365 nm radiation and compared with the results of a non-irradiated measurement. […] Unfortunately, 365 nm radiation turned out to have only minor effects on the IC50 values of 11 (Table 3).
(§3) Cloning, expression and purification of recombinant proteins: Expression and purification of Sirt1_133-747, Sirt2_56−356, and Sirt3_118−395 was carried out as described previously. Identity and purity were verified by SDS-PAGE [65]. Protein concentration was determined by the Bradford assay.
(§4) Bioassay: The inhibitory effect of compounds 2a–h, 4a/b, 8a and 11 on Sirt1–3 was detected via a previously reported fluorescence based assay. The synthetic substrate Z-Lys(acetyl)-AMC (ZMAL) is deacetylated by sirtuins, followed by tryptic digestion and thereby release of […], leading to a fluorescent readout. Inhibition was determined by comparing percentage substrate conversion to a DMSO control after subtraction of the blank fluorescence signal. All compounds were tested at 100 µM, 50 µM and 10 µM, respectively. […] IC50 values were calculated with OriginPro 9.0 G using a non-linear regression to fit the dose response curve. An enzyme-free blank control and a 100% conversion control using AMC instead of ZMAL were measured as well. Inhibition measurements were performed in biological duplicates for all compounds.

Sirt3 = target: T2, Sirt3 (Homo sapiens, UniProt Q9NTG7); test: as above; format: biochemical; conditions: read-out: Sirt3 inhibition IC50
T2 construct: Sirt3_118−395; made in house
T2 sequence (Q9NTG7 118-395): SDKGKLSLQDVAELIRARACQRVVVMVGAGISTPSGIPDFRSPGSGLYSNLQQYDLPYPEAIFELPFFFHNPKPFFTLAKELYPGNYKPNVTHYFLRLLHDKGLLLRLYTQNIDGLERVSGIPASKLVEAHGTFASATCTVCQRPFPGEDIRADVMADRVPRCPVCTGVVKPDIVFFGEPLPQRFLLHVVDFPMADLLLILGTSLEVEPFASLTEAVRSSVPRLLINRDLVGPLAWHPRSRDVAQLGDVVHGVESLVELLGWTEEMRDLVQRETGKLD
Method: as §1, §2, §3, §4

[1] = photostationary state (PSS) after 5 minutes of 365 nm irradiation
[2] = thermal equilibrium (∆), non-irradiated

inhibition at 100 µM (Sirt1; [1]): 19%
inhibition at 100 µM (Sirt1; [2]): 35%
IC50 (Sirt3; [1]): 29.9 ± 2.11 µM
IC50 (Sirt3; [2]): 27.5 ± 3.42 µM
SMILES: NC(=O)c1cncc(N=Nc2ccc(F)cc2)c1 [Compound 11, 5-[(4-Fluorophenyl)diazenyl]nicotinamide]
